The values below come from PMC9915011, “Polymyxin B Conjugates with Bio-Inspired Synthetic Polymers of Different Nature” (International Journal of Molecular Sciences, 2023).

For assay [1], the system named is P. aeruginosa (ATCC 27853). Put plainly: MIC by microdilution in Müller–Hinton broth. In kind it is cell-based, Pseudomonas aeruginosa. The settings on record: 18 h, OD 630 nm, n = 9. The text has this: P. aeruginosa (ATCC 27853) from Museum of Microbiological Cultures of State Research Institute of Highly Pure Biopreparations FMBA (St. Petersburg, Russia) and Müller–Hinton Broth (HiMedia, Mumbai, India) were used to study the antibacterial effect of PMX B and its conjugates. HEK 293T cells were purchased from the cell culture collection of the Institute of Cytology of Russian Academy of Sciences (St. Petersburg, Russia).
The minimum inhibitory concentration (MIC) of polymyxin B in the conjugates was determined by the microdilution method in Müller–Hinton broth. Before the samples were tested against P. Aeruginosa, they were checked for microbiological purity to exclude possible contamination. In all cases, the absence of microbial growth on Luria–Bertani agar was detected. […] The plate was incubated for 18 h at 37 °C and then the optical density in the wells was measured at 630 nm using a microplate reader (ELx808™ Absorbance Microplate Reader, BioTek-Agilent, Santa Clara, CA, USA). Relative bacterial growth (%) was calculated from the data of OD measured for samples and control according to the equation: (2) Relative bactearial growth=OD630 sample at Cx−OD630 blank/OD630 positive control−OD630 blank×100% where Cx is a certain concentration of the sample. […]

The subject of a further assay is S. aureus. The conditions noted are these: cited from earlier work. The text has this: A series of conjugates of loracarbef (cephalosporins) and ciprofloxacin (fluroquinolones) with sideromycins (siderophores) was synthesized and tested against a panel of ESKAPEE bacteria (Enterococcus faecium, S. aureus, Klebsiella pneumoniae, A. baumannii, P. aeruginosa, Enterobacter aerogenes, E. coli).

In assay [2] the test system is Acinetobacter baumannii (Ab ATCC 19606). The settings on record: cited from earlier work.
A further assay has as its system P. aeruginosa. The conditions noted are these: free colistin; cited from earlier work. The protocol: According to the published works, many factors affect the MIC for conjugates linked with amide bonds. For example, Dubashynskaya et al. observed the dependence of MIC on the degree of substitution (DS). In particular, when the DS was 8%, the MIC against P. aeruginosa for hyaluronan–colistin conjugates was 1 µg/mL, the same as for free colistin. At the same time, a decrease in DS to 5 and 3% was accompanied with the MIC increase to 4 and more than 8 µg/mL, respectively.

The subject of a further assay is HEK 293T cells. Kind of assay: MTT cytotoxicity in HEK 293T cells, 48 h. In kind it is cell-based, human. The conditions noted are these: free polymers and free PMX B, tested 4 to 1000 µg/mL, mean ± SD, n = 4.

In brackets after ≈: the same amount, converted by molar mass.

Description for HEK 293T cells: The cell viability was determined after 48 h using the MTT assay (Figure 6).
HEK 293T cells were cultivated in DMEM/F12 medium with 10% FCS, 2 mM glutamine, and 1% gentamicin (Sigma-Aldrich, Darmstadt, Germany). In 96-well plates, 3.5 × 10^3 cells in 100 µL were seeded per well and left for adhesion at 37 °C for 24 in a humidified 5% CO2 atmosphere. After that, the medium in the wells was replaced with 200 µL of solution containing the test samples at the specified concentrations (n = 4) and left for incubation under the same conditions for 48 h. Then, the medium was removed and 100 µL of MTT reagent solution (5 mg/mL stock solution) was added to each well. The plates were incubated in the CO2 incubator for 3 h at 37 °C. Finally, the solution in the well was replaced with 50 µL of DMSO to dissolve formazan crystals and the optical density in each well was measured at 570 nm using fluorescent plate reader (Fluoroscan Ascent, Thermo Fisher Scientific Inc., Waltham, MA, USA). The wavelength of 690 nm was used to measure the background absorbance. The data obtained were normalized as a percentage of the control. Free polymers and PMX B were tested at concentrations ranging from 4 to 1000 µg/mL.

As for `CC(=O)N(O)CCCCCNC(=O)CCC(=O)N(O)CCCCCNC(=O)CCC(=O)N(O)CCCCCN` [DFOA, deferoxamine], the antimicrobial activity entry in assay [1] (P. aeruginosa, concentration range of 0.25–64 μg/mL) is listed as “neither polymers nor DFOA exhibited antimicrobial activity”. Consider `N[C@@H](C(=O)N[C@@H]1C(=O)N2C(C(=O)O)=C(Cl)CC[C@H]12)c1ccccc1` [loracarbef], for which, in the assay with S. aureus, the minimal inhibitory concentration (MIC) is given as 1 µM (≈ 0.35 µg/mL). On to colistin, for which the MIC (in assay [2]; in the assay on P. aeruginosa) was 1 mg/L each time. Molecule polymyxin B [PMX B] came in with a concentration for half-maximal inhibition (IC50) in the assay on HEK 293T cells of 130 ± 14 mg/L. In addition, in assay [1] (P. aeruginosa ATCC 27853, microdilution, Müller–Hinton broth, 1 × 10^7 CFU/mL, 37 °C, MIC of polymyxin B in the conjugates), the MIC amounted to 4 mg/L.
